From patent publication US5506216A, “Cyclodextrin-biocide complex” (Boehringer Mannheim GmbH, priority 1993, dated 1996)
Read-outs that look alike come from different tables or passages of the source.

Experiments:
Test in all cases: MIC of included and free biocides on agar
Assay type in all cases: cell-based
Settings in all cases: for MIC: read-out: MIC of included and free biocides
Candida albicans (yeast) = system: Candida albicans (yeast)
Method: (§1) The spectrum of activity of the individual biocide inclusion complexes was determined on bacteria (gram-positive and gram-negative strains), yeasts and fungi (see Table 1). The values are stated as MIC values (=minimum inhibitory concentration) in mg/ml.
(§2) The determination of the growth of the microorganisms was carried out on M121 medium (Sabouraud, 2% maltose nutrient agar (Merck)) for yeasts and fungi and on M130 medium (standard I nutrient agar (Merck)) for bacteria after 72 hours at 28° C. The amount of active substance in the CD inclusion compounds is less than 10%.

[1] = system: Bacillus subtilis (gram +)
Method: as §1, §2

[2] = system: Aspergillus oryzae (fungus)
Method: as §1, §2

[3] = system: Pseudomonas fluorescens (gram -)
Method: as §1, §2

[4] = system: Staphylococcus aureus (gram +)
Method: as §1, §2

[5] = system: Escherichia coli (gram -)
Method: as §1, §2

[6] = M121 medium, 72 hours at 28° C., active substance in complexes <10%
[7] = M130 medium, 72 hours at 28° C., active substance in complexes <10%

Row | Compound | MIC (Candida albicans (yeast); 72 h) | MIC ([1]; 72 h) | MIC ([2]; 72 h) | MIC ([3]; 72 h) | MIC ([4]; 72 h) | MIC ([5]; 72 h) | other results
1 | 1,2-benzisothiazolin-3-thion [Proxel] |  |  |  |  |  |  | MIC of included and free biocides (Candida albicans (yeast); [6]): 40 µg/mL; MIC of included and free biocides [1, 7]: < 40 µg/mL; MIC of included and free biocides [2, 6]: 75 µg/mL; MIC of included and free biocides [3, 7]: < 40 µg/mL; MIC of included and free biocides [4, 7]: < 40 µg/mL; MIC of included and free biocides [5, 7]: < 40 µg/mL
2 | CNC(=O)c1ccccc1SSc1ccccc1C(=O)NC [Densil P, dithio-2,2'-bis(benzmethylamide)] |  |  |  |  |  |  | MIC (Candida albicans (yeast); [6]): 600 µg/mL; MIC [1, 7]: < 40 µg/mL; MIC [2, 6]: < 40 µg/mL; MIC [3, 7]: 300 µg/mL; MIC [4, 7]: < 40 µg/mL; MIC [5, 7]: 75 µg/mL
3 | N#CSCSC#N [methylenebisthiocyanate] | 20 µg/mL | 75 µg/mL | 20 µg/mL | < 40 µg/mL | 17.5 µg/mL | < 40 µg/mL | 
4 | Oc1ccccc1-c1ccccc1 [o-phenylphenol] | 600 µg/mL | 1250 µg/mL | 300 µg/mL | 1250 µg/mL | 1250 µg/mL | 1250 µg/mL | 
